Reference: ChEMBL document CHEMBL1641372 (Bioorg Med Chem Lett, 2011)
pEC50, pIC50, pKi: −log10 of the molar value.

Assays:
[1] = biological target: T1, 5-hydroxytryptamine receptor 3A (Homo sapiens, UniProt P46098); test: Binding affinity to human 5HT3A receptor; type: single protein
T1 sequence (P46098 whole entry): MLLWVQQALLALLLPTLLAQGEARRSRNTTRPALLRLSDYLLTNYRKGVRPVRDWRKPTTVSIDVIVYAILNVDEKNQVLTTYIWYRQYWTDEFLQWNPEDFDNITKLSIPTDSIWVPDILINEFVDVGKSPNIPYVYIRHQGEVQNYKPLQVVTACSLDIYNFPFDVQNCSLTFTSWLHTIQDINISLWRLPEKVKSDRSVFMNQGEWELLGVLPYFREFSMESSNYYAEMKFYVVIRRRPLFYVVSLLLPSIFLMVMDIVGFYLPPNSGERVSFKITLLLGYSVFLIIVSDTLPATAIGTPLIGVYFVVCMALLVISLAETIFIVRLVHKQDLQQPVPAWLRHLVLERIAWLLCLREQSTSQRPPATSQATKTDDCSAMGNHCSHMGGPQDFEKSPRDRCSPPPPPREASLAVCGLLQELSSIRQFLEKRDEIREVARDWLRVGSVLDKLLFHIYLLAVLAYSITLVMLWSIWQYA

[2] = Inhibition of human CYP450; type: ADME
[3] = biological target: T1, 5-hydroxytryptamine receptor 3A; test: Partial agonist activity at human 5HT3A receptor expressed in HEK293 cells assessed as decrease in 10 uM 5-chloroindole-induced increase in intracellular calcium release; type: functional, cell-based
Mus musculus = test: Partial agonist activity at 5HT3 receptor in po dosed mouse assessed inhibition of serotonin-induced bradycardia administered 1 hr before serotonin challenge by von Bezold-Jarisch reflex test; type: functional
Cytochrome P450 3A4 = Cytochrome P450 3A4 (Homo sapiens, UniProt P08684); test: Inhibition of human CYP3A4; type: ADME
Chain of Cytochrome P450 3A4 (P08684 whole entry): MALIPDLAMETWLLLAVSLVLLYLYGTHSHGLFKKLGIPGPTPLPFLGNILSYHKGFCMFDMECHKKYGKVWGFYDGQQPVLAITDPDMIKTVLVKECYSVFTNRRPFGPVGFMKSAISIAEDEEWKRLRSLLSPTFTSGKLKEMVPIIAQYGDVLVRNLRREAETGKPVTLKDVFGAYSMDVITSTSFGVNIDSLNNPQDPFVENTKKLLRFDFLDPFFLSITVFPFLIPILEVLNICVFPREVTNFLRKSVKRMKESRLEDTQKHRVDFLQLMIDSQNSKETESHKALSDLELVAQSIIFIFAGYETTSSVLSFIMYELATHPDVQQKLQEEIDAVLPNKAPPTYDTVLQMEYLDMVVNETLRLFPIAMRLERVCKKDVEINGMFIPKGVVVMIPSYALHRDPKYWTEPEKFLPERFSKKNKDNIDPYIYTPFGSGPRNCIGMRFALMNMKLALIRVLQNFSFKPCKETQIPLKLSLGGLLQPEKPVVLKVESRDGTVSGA

[4] = Intrinsic clearance in human liver microsomes assessed per mg of protein; type: ADME, Microsome
[5] = biological target: T1, 5-hydroxytryptamine receptor 3A; test: Partial agonist activity at human 5HT3A receptor expressed in HEK293 cells assessed as effect on serotonin-induced response; type: functional, cell-based
[6] = Solubility of the compound at pH 7.4 phosphate buffered saline; type: physicochemical
[7] = biological target: T2, 5-hydroxytryptamine receptor 1A (Homo sapiens) (UniProt P08908); test: Inhibition of 5HT1A receptor at 1 uM
T2 sequence (whole entry): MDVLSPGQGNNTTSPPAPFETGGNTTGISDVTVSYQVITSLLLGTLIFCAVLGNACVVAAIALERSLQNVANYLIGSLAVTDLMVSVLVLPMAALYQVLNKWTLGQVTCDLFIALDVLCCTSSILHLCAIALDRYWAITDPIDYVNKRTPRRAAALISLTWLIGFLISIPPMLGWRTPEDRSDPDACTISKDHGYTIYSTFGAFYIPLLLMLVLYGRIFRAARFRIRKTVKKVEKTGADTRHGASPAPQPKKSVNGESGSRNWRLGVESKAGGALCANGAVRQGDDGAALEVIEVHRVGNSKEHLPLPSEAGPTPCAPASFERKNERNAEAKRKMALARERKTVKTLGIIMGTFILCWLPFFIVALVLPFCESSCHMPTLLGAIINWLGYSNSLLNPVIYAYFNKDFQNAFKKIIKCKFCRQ

[8] = biological target: 5-hydroxytryptamine receptor 4 (Homo sapiens) (UniProt Q13639); test: Inhibition of 5HT4 receptor at 1 uM
Chain of 5-hydroxytryptamine receptor 4 (Homo sapiens) (Q13639 whole entry): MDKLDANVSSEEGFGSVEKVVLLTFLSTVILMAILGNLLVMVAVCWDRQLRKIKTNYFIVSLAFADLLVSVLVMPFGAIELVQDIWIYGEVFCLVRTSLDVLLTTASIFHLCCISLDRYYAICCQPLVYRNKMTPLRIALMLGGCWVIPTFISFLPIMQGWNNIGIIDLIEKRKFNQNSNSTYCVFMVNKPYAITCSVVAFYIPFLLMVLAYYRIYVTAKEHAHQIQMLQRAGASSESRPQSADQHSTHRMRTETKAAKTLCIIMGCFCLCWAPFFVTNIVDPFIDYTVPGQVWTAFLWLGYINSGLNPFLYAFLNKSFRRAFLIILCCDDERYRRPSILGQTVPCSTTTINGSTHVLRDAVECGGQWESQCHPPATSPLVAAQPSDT

## CCn1nc2c3c(cccc31)C(=O)N([C@@H]1CN3CCC1CC3)C2
[1]
  pKi: 8.80

## CCn1nc2c3c(cccc31)C(=O)N([C@H]1CN3CCC1CC3)C2
[1]
  pKi: 8.70

## Cn1cc2c3c(cccc31)C(=O)N([C@@H]1CN3CCC1CC3)C2
[1]
  pKi: 9.15

## Cn1nc2c3c(cccc31)C(=O)N([C@H]1CN3CCC1CC3)C2
[2]
  pIC50: < 4.30
[1]
  pKi: 8.77
[3]
  pEC50: 8.16
Mus musculus
  ED50: 0.25 mg/kg
Cytochrome P450 3A4
  pIC50: > 5.00
[4]
  microsomal CLint: 3.8 µL/min/mg
[5]
  pEC50: 7.90
[6]
  solubility: > 500 µM

## O=C1c2cccc3c2c(nn3Cc2ccccc2)CN1[C@H]1CN2CCC1CC2
[1]
  pKi: 8.15

## Cn1cc2c3c(cccc31)C(=O)N([C@H]1CN3CCC1CC3)C2
[1]
  pKi: 9.05

## O=C1c2cccc3[nH]nc(c23)CN1[C@H]1CN2CCC1CC2
[7]
  inhibition: > 50%
[2]
  pIC50: < 4.30
[8]
  inhibition: > 50%
Mus musculus
  ED50: 0.64 mg/kg
Cytochrome P450 3A4
  pIC50: > 5.00
[4]
  microsomal CLint: 7.3 µL/min/mg

## Cn1nc2c3c(cc(F)cc31)C(=O)N([C@H]1CN3CCC1CC3)C2
[1]
  pKi: 8.70

## Cn1nc2c3c(cccc31)C(=O)N([C@@H]1CN3CCC1CC3)C2
[1]
  pKi: 9.15

## O=C1c2cccc3[nH]nc(c23)CN1[C@@H]1CN2CCC1CC2
[7]
  inhibition: > 50%
[8]
  inhibition: > 50%

## Cc1[nH]cnc1CN1CCc2c(c3ccccc3n2C)C1=O [ALOSETRON]
Mus musculus
  ED50: 0.02 mg/kg

## CC(C)Cn1nc2c3c(cccc31)C(=O)N([C@@H]1CN3CCC1CC3)C2
[1]
  pKi: 8.62

## O=C(N[C@H]1CN2CCC1CC2)c1c[nH]c2ccsc2c1=O [PUMOSETRAG]
[3]
  pEC50: 8.04
Mus musculus
  ED50: 0.96 mg/kg
Cytochrome P450 3A4
  pIC50: 5.03
[4]
  microsomal CLint: 24 µL/min/mg
[5]
  pEC50: 8.27
